What was measured:
[1] = system: pseudoviruses with ADA-C2-V5res chimeric envelope; test: Single-cycle HIV-1 pseudovirus luciferase assay in U87-CD4-CCR5 cells; format: cell-based
Protocol: (§1) Homologous recombination of the V2-C5 gp120 fragment from RU570-PC gp120 clone #16 and RU570-VCVres gp120 clone #8 was performed following restriction endonuclease digestion of constructs with MfeI and gel purification of the 838 bp V2-C5 gp120 fragments (HXB2 gp120 nucleotides 533-1431; gp120 at position 185-478). The pSV7d-ADA gp160 expression vector was digested with BglII and BstZ17I restriction endonucleases, alkaline phosphatase treated and the 5.1 kb vector was gel purified on 1% agarose. A 50:1 ratio of V2-C5res gp120 fragment to vector was used to transform chemically-competent BJ5183 E. coli, and individual colonies were screened by PCR for successful recombination.
(§2) HIV-1 pseudoviruses were produced in 293T cells by calcium phosphate transfection of pNL4-3E^−Luc^+ and HIV-1 envelope expression vectors using ProFection® Mammalian Transfection system (Promega Corp., Madison, Wis.). HIV-1 pseudovirus was harvested in culture supernatants 48 hrs post-transfection and supernatants were clarified of cell debris by centrifugation at 1500 g for 10 min. Single-cycle infection assays were generally performed on the same day HIV-1 pseudovirus was harvested. To assess susceptibility to CCR5 co-receptor antagonists, 5,000 U87-CD4-CCR5 cells/well were seeded into 96-well luminometer plates (Perkin Elmer) and plates were incubated overnight at 37° C. The next day serial 10-fold dilutions of inhibitor in cell culture medium (10 μM→1.0 μM) were added to wells one hour prior to the addition of HIV-1 pseudovirus plus inhibitor. Plates were incubated for 72 hours, and luciferase activity was analyzed by adding 50 μl of BrightGlo™ luciferase assay buffer and plates were read on a Dynex luminometer (300 mSec/well). Relative light units (RLU) were normalized to virus dose, measured as ng p24, and percent inhibition, was calculated as follows: 100−[average normalized RLU for HIV-1 pseudovirus plus drug/average normalized RLU for HIV-1 pseudovirus from control wells without drug]×100. Dose-response data was analyzed using a non-linear regression 4-parameter logistic curve fit program with Prism GraphPad Software Version 4.0 (San Diego, Calif.).

[2] = system: pseudoviruses with ADA-V3res chimeric envelope; test: as above; format: cell-based
Protocol: as §1, §2

[3] = system: pseudovirus with RU570-PC-C2-V5res chimeric envelope; test: Single-cycle HIV-1 pseudovirus assay, effect of viral inoculum; format: cell-based; settings: very high inoculum, 90 ng p24
Protocol: as §2, with “The next day serial 10-fold dilutions of inhibitor in cell culture medium (10 μM→1.0 μM) were added to wells one hour prior to the addition of HIV-1 pseudovirus plus inhibitor.” left out

[4] = system: HIV-1 particles pseudotyped with ADA gp160; test: Single-cycle HIV-1 pseudovirus luciferase assay in U87-CD4-CCR5 cells; format: cell-based
Protocol: as §2

[5] = system: HIV-1 particles pseudotyped with VCVres chimeric RU570-PC envelopes (RU570-PC-C2-C3res, -C2-V4res, -C2-V5res); test: as above; format: cell-based
Protocol: as §2

[6] = system: HIV-1 particles pseudotyped with RU570-PC gp160 envelope; test: as above; format: cell-based
Protocol: as §2

[7] = system: RU570 passage control virus (RU570-PC); test: Viral replication assay in PBL (p24 ELISA), passage control culture; format: cell-based, HIV-1; settings: through 93 weeks of cell culture
Protocol: The Hut 78 derived PM-1 (Lusso, P., et al (1995). J Virol 69(6), 3712-20) T-cell line was infected with a parental PBL stock of HIV-1 RU570 for one week prior to the initiation of vicriviroc selection starting at 0.1 nM. PM-1 cell cultures were passaged weekly by transferring 1 ml of cell culture supernatant and one tenth of the infected cells into fresh PM-1 cultures (1-2×10^6) in the absence (passage control culture, RU570-PC) or presence (RU570-VCV) of vicriviroc. Culture supernatants were subsequently used to re-infect fresh PM-1 cells weekly. Viral supernatants and infected cells were collected periodically for p24 antigen titers, vicriviroc sensitivity testing in PBL described below in the viral replication assay section, and sequence analysis. […]
IL-2/PHA-stimulated PBL were seeded into 96-well plates (200,000 cells/well) pretreated with an equal volume of medium plus vicriviroc or medium only at 37° C. for 1 hour. […] Viral replication was assessed by measuring p24 antigen production by ELISA. The IC50 and IC90 values for vicriviroc susceptibility with these viruses was determined by analyzing dose-response curves using a 4-parameter logistic curve fit model with Prism GraphPad Software Version 4.0 (San Diego, Calif.).

RU570-VCV virus = test: Viral replication assay in PBL (p24 ELISA), vicriviroc-passaged culture; format: cell-based, HIV-1
Protocol: The Hut 78 derived PM-1 (Lusso, P., et al (1995). J Virol 69(6), 3712-20) T-cell line was infected with a parental PBL stock of HIV-1 RU570 for one week prior to the initiation of vicriviroc selection starting at 0.1 nM. PM-1 cell cultures were passaged weekly by transferring 1 ml of cell culture supernatant and one tenth of the infected cells into fresh PM-1 cultures (1-2×10^6) in the absence (passage control culture, RU570-PC) or presence (RU570-VCV) of vicriviroc. Culture supernatants were subsequently used to re-infect fresh PM-1 cells weekly. Viral supernatants and infected cells were collected periodically for p24 antigen titers, vicriviroc sensitivity testing in PBL described below in the viral replication assay section, and sequence analysis. […] To select for minor populations of highly resistant variants that may have emerged, the concentration of vicriviroc was escalated to 10 μM at week 36 and cultures were maintained in 10 μM vicriviroc until viral replication remained consistent. By approximately week 56, VCV-treated cultures were replicating to similar levels compared to the passage control cultures and maintained consistently robust growth up to 93 weeks when cultures were terminated.
IL-2/PHA-stimulated PBL were seeded into 96-well plates (200,000 cells/well) pretreated with an equal volume of medium plus vicriviroc or medium only at 37° C. for 1 hour. The plates were centrifuged at 300 g for 10 min and the media aspirated and replaced with 20 μl of fresh medium with or without compound. The cells were then infected in triplicate using 20 μl of viral supernatant (RU570) from 3 hr to overnight at 37° C. The cells were washed twice with PBS to remove residual viral inoculums and cultured in the presence or absence of vicriviroc for 4-6 days. Viral replication was assessed by measuring p24 antigen production by ELISA. The IC50 and IC90 values for vicriviroc susceptibility with these viruses was determined by analyzing dose-response curves using a 4-parameter logistic curve fit model with Prism GraphPad Software Version 4.0 (San Diego, Calif.).

[8] = system: replication competent HIV-1 virus containing the ADA-C2-V5res chimeric envelope sequence (NL4-3-AD8-C2-V5res); test: Vicriviroc susceptibility assay with replication competent virus in U87-CD4-CCR5 cells; format: cell-based; settings: multi-cycle infection
Description: (§3) The pNL4-3-AD8 molecular clone was modified by deleting 650 bp of cDNA sequence flanking the 5′LTR, thereby creating a unique Stu I site within gp120. The ADA-V3res and ADA-C2-V5res chimeric envelopes were digested with StuI and AleI restriction endonucleases and the 1.2 kb env fragments corresponding to at 203-608 (HXB2 gp160 aa coordinates) were gel purified on 1% agarose. These fragments were cloned directly into pNL4-3-AD8 digested with the same restriction endonucleases and all constructs were verified by DNA sequence analysis.
(§4) 293T cells were transfected with pNL4-3-AD8, pNL4-3-AD8-C2-V5res, and pNL4-3-AD8-V3res molecular clones using Superfect transfection reagent (Qiagen Corp., Vencia, Calif.) and HIV-1 virus was harvested in supernatants 48 hr post transfection.
(§5) CCR5 inhibitor resistance was previously reported to be influenced by the assay format in which resistance is evaluated (Pugach, P., et al (2007). Virology 361(1), 212-28). […] In order to evaluate differences in susceptibility profiles between single-cycle and multi-cycle infection assays in U87-CD4-CCR5 cells, we generated replication competent viruses expressing the chimeric gp120 envelopes. Restriction fragments corresponding to HXB2 aa 203-608 within ADA-V3res and ADA-C2-V5res chimeric envelopes were transferred to an NL4-3-AD8 HIV-1 molecular clone by unique restriction-site digestion and relegation. […]

NL4-3-AD8 virus = test: as above; format: cell-based, HIV-1; settings: Human immunodeficiency virus 1, NL43, multi-cycle infection
Description: as §3, §4, §5

NL4-3-AD8-V3res virus = test: as above; format: cell-based, HIV-1; settings: Human immunodeficiency virus 1, NL43, multi-cycle infection
Description: as §3, §4, §5

[9] = Human immunodeficiency virus 1, U87/CD4/CCR5

Compound: COC[C@@H](c1ccc(C(F)(F)F)cc1)N1CCN(C2(C)CCN(C(=O)c3c(C)ncnc3C)CC2)C[C@@H]1C [vicriviroc, Vicriviroc]
- maximum inhibition (MI), plateau level ([1]; 2 ng p24 inoculum): approximately 80%
- susceptibility to vicriviroc (phenotype) ([1]; ADA-C2-V5res pseudovirus, U87-CD4-CCR5 cells): resistant phenotype
- maximum inhibition (MI), plateau level ([1]; high virus inocula, 70 ng p24): approximately 55%
- susceptibility to vicriviroc [2]: completely susceptible
- maximum inhibition [3]: 100%
- IC50 [4, 9]: 0.04 nM
- Emax ([4]; Human immunodeficiency virus 1, U87/CD4/CCR5, read-out: maximum response, percent inhibition): 100%
- MI values ([4]; parental ADA gp160, regardless of the virus concentration (data not shown)): 100%
- IC50 [5, 9]: 0.07 to 0.2 nM
- inhibition at 0.1 µM ([5]; Human immunodeficiency virus 1, U87/CD4/CCR5, read-out: maximum inhibition levels): 100%
- IC50 [6, 9]: 0.1 nM
- MI values ([6]; RU570-PC 160 construct, regardless of the virus concentration (data not shown)): 100%
- maximum inhibition ([6]; {}): 100%
- susceptibility to vicriviroc [7]: remained susceptible
- IC50 (RU570-VCV virus; Human immunodeficiency virus 1, RU570-VCV culture until week 45, PBL): < 50 nM
- maximum percent inhibition (RU570-VCV virus; RU570-VCV culture until week 45, PBL): 100%
- maximal percent inhibition (RU570-VCV virus; RU570-VCV culture week 45, PBL): approximately 76%
- maximal percent inhibition (RU570-VCV virus; RU570-VCV culture week 47, PBL): ~45%
- maximum percent inhibition (RU570-VCV virus; RU570-VCV culture week 93, PBL, flat dose-response curve): approximately 30%
- MI (maximum inhibition) [8]: approximately 50%
- IC50 (NL4-3-AD8 virus): 0.025 nM
- IC50 (NL4-3-AD8-V3res virus): 0.025 nM

— patent US20080220528A1, “HIV GENE CLONING STRATEGY” (SCHERING CORPORATION, priority 2006, published 2008)
